# Data: patent US11191762B2, “Alkyl substituted triazole compounds as agonists of the APJ Receptor” (priority 2016, dated 2021)
# Read-outs that look alike come from different tables or passages of the source.
# Biological target: human APJ receptor (Homo sapiens (Human), UniProt P35414)
# Experiment: biochemical
# Format: biochemical
# Experimental: The human APJ receptor was cloned by polymerase chain reaction and the gene encoding the receptor was subcloned in pFLAG-CMV™-3 expression vector (Sigma, Saint Louis, Mo. USA) in-house at Amgen. A GTPγS binding assay was performed on membranes prepared from CHO cells stably expressing human APJ receptor. The optimum experimental conditions for the concentrations of GDP, MgCl2, and NaCl in the assay buffer were initially determined. The assay was performed in 9 μL assay buffer [20 mM HEPES, pH 7.5, 5 mM MgCl2, 100 mM NaCl and 0.1% (w/v) BSA], 1 μL of diluted test compound (starting with 0.75 mM, 2-fold serial dilution with DMSO, total 22 points), 10 μL of 18 µM GDP (final concentration of 3 μM GDP), 20 μL of […] membrane protein expressing human APJ receptor captured with WGA PS beads (final concentration of 5 μg per well), and 20 μL of 0.3 nM [^35S]GTPγS (final concentration is 0.1 nM [^35S]GTPγS)(Perkin Elmer Life and Analytical Sciences, Waltham USA).
# [1] = [35S]GTPγS binding, membranes from CHO cells stably expressing human APJ receptor, read-out: Activity hAPJ SPA EC50 IP
# [2] = read-out: Activity hAPJ SPA EC50 IP
# Chain of human APJ receptor (P35414 whole entry): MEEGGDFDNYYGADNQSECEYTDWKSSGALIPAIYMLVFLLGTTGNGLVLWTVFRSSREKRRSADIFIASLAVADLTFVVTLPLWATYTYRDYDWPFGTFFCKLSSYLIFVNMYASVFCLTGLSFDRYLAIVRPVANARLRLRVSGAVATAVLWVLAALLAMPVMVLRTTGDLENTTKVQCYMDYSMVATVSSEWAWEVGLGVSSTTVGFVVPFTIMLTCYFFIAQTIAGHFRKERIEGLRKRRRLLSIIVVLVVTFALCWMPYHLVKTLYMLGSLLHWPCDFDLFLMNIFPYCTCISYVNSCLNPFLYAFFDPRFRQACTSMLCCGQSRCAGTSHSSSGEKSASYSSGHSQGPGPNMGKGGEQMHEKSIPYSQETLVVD
smiles,measurement,setting,value
"COc1ncnc(OC)c1-n1c(NS(=O)(=O)[C@@H](C)[C@H](OC)c2ncc(Cl)cn2)nnc1C(C)C [Example 133.0, (1R,2S)-1-(5-chloro-2-pyrimidinyl)-N-(4-(4,6-dimethoxy-5-pyrimidinyl)-5-(2-propanyl)-4H-1,2,4-triazol-3-yl)-1-methoxy-2-propanesulfonamide]",EC50,[1],0.022 µM
COCc1nnc(NS(=O)(=O)[C@@H](C)[C@@H](OC(C)C)c2ncc(Cl)cn2)n1-c1c(OC)ncnc1OC [Example 134.0],EC50,[1],0.012 µM
"COc1cccc(OC)c1-n1c(C[C@@H]2CCCO2)nnc1NS(=O)(=O)[C@@H](C)[C@H](C)c1ncc(Cl)cn1 (mixture of isomers) [Example 46.0, (2S,3R)-3-(5-chloro-2-pyrimidinyl)-N-(4-(2,6-dimethoxyphenyl)-5-((2R)-tetrahydro-2-furanylmethyl)-4H-1,2,4-triazol-3-yl)-2-butanesulfonamide and (2S,3R)-3-(5-chloro-2-pyrimidinyl)-N-(4-(2,6-dimethoxyphenyl)-5-((2S)-tetrahydro-2-furanylmethyl)-4H-1,2,4-triazol-3-yl)-2-butanesulfonamide]",EC50,[1],0.33 µM
"COCc1nnc(NS(=O)(=O)[C@@H](C)[C@H](OC)c2ncc(Cl)cn2)n1-c1c(OC)ncnc1OC [Example 58.0, (1R,2S)-1-(5-chloropyrimidin-2yl)-N-(4-(4.6-dimethoxypyrimidin-5-yl)-5-(methoxymethyl)-4H-l,2,4-triazol-3-yl)-1-methoxypropane-2-sulfonamide]",EC50,[2],0.33 µM
"[2H]C([2H])([2H])OCc1nnc(NS(=O)(=O)[C@@H](C)[C@H](OC)c2ncc(Cl)cn2)n1-c1c(OC)cccc1OC [Example 129.0, (1R,2S)-1-(5-chloro-2-pyrimidinyl)-N-(4-(2,6-dimethoxyphenyl)-5-(((˜2-H_3_)methyloxy)methyl)-4H-1,2,4-triazol-3-yl)-1-methoxy-2-propanesulfonamide]",EC50,,0.0043 µM
COCc1nnc(NS(=O)(=O)[C@@H](C)[C@H](OC)c2ncc(Cl)cn2)n1-c1c(Cl)cccc1Cl [Example 157.0],EC50,[1],> 12.5 µM
"COc1cccc(OC)c1-n1c(CC2COC2)nnc1NS(=O)(=O)[C@@H](C)[C@H](C)c1ncc(Cl)cn1 [Example 34.0, (2S,3R)-3-(5-chloro-2-pyrimidinyl)-N-(4-(2,6-dimethoxyphenyl)-5-(3-oxetanylmethyl)-4H-1,2,4-triazol-3-yl)-2-butanesulfonamide]",EC50,[1],0.016 µM
"COCc1nnc(NS(=O)(=O)[C@@H](C)[C@H](C)c2ccc(Cl)cn2)n1-c1c(OC)cccc1OC [Example 75.0, (2S,3R)-3-(5-chloropyridin-2-yl)-N-(4-(2,6-dimethoxyphenyl)-5-(methoxymethyl)-4H-1,2,4-triazol-3-yl)butane-2-sulfonamide]",EC50,[2],0.0031 µM
COCCOCc1nnc(NS(=O)(=O)[C@@H](C)[C@H](C)c2ncc(Cl)cn2)n1-c1c(OC)cccc1OC [Example 151.0],EC50,[2],0.024 µM
"COc1cccc(OC)c1-n1c(COC(C)C)nnc1NS(=O)(=O)[C@@H](C)[C@H](OC)c1ncc(Cl)cn1 [Example 69.0, (1R,2S)-1-(5-chloropyrimidin-2-yl)-N-(4-(2,6-dimethoxyphenyl)-5-(isopropoxymethyl)-4H-1,2,4-triazol-3-yl)-1-methoxypropane-2-sulfonamide]",EC50,[2],0.0012 µM
"COCc1nnc(NS(=O)(=O)[C@@H](C)[C@H](C)c2ncc(Cl)cn2)n1-c1c(OC)ncnc1OC [Example 11.0, (2S,3R)-3-(5-chloro-2-pyrimidinyl)-N-(4-(4,6-dimethoxy-5-pyrimidinyl)-5-(methoxymethyl)-4H-1,2,4-triazol-3-yl)-2-butanesulfonamide]",EC50,[1],0.088 µM
"COCc1nnc(NS(=O)(=O)[C@@H](C)[C@H](C)c2cnc(C)cn2)n1-c1c(OC)ncnc1OC [Example 9.0, (2S,3R)-N-(4-(4,6-dimethoxy-5-pyrimidinyl)-5-(methoxymethyl)-4H-1,2,4-triazol-3-yl)-3-(5-methyl-2-pyrazinyl)-2-butanesulfonamide]",EC50,[1],0.63 µM
COc1cccc(OC)c1-n1c(Cc2ccccc2)nnc1NS(=O)(=O)[C@@H](C)[C@H](OC)c1ncc(C)cn1 [Example 54.0],EC50,[1],0.3 µM
CCCCc1nnc(NS(=O)(=O)[C@@H](C)[C@H](C)c2ncc(Cl)cn2)n1-c1c(OC)cccc1OC [Example 164.0],EC50,[1],0.00084 µM
"COc1cccc(OC)c1-n1c(C[C@@H]2CCS(=O)(=O)C2)nnc1NS(=O)(=O)[C@@H](C)[C@H](C)c1ncc(Cl)cn1 (mixture of isomers) [Example 47.0, (2S,3R)-3-(5-chloro-2-pyrimidinyl)-N-(4-(2,6-dimethoxyphenyl)-5-(((3R)-1,1-dioxidotetrahydro-3-thiophenyl)methyl)-4H-1,2,4-triazol-3-yl)-2-butanesulfonamide and (2S,3R)-3-(5-chloro-2-pyrimidinyl)-N-(4-(2,6-dimethoxyphenyl)-5-(((3S)-1,1-dioxidotetrahydro-3-thiophenyl)methyl)-4H-1,2,4-triazol-3-yl)-2-butanesulfonamide]",EC50,[1],0.07 µM
"COCc1nnc(NS(=O)(=O)[C@@H](C)[C@H](C)c2cnc(OC)cn2)n1-c1c(OC)cccc1OC [Example 74.0, (2S,3R)-N-(4-(2,6-dimethoxyphenyl)-5-(methoxymethyl)-4H-l,2,4-triazol-3-yl)-3-(5-methoxypyrazin-2-yl)butane-2-sulfonamide]",EC50,[1],0.016 µM
"COc1cccc(OC)c1-n1c(Cn2ccccc2=O)nnc1NS(=O)(=O)[C@@H](C)[C@H](C)c1ncc(Cl)cn1 [Example 42.0, (2S,3R)-3-(5-chloro-2-pyrimidinyl)-N-(4-(2,6-dimethoxyphenyl)-5-((2-oxo-1(2H)-pyridinyl)methyl)-4H-1,2,4-triazol-3-yl)-2-butanesulfonamide]",EC50,[1],0.33 µM
"COCc1nnc(NS(=O)(=O)[C@@H](C)[C@H](OC)c2ncc(Cl)cn2)n1C1(C)CC1 [Example 59.0, (1R,2S)-1-(5-chloropyrimidin-2-yl)-1-methoxy-N-(5-(methoxymethyl)-4-(1-methylcyclopropyl)-4H-1,2,4-triazol-3-yl)propane-2-sulfonamide]",EC50,[1],0.033 µM
COc1cccc(OC)c1-n1c(NS(=O)(=O)[C@@H](C)[C@H](C)c2ncc(C)cn2)nnc1C(F)(F)c1ccccn1 [Example 137.0],EC50,[1],0.23 µM
"COCc1nnc(NS(=O)(=O)[C@@H](C)[C@@H](OC(C)C)c2ncc(C)cn2)n1-c1c(F)cccc1F [Example 30.0, (1S,2S)-N-(4-(2,6-difluorophenyl)-5-(methoxymethyl)-4H-1,2,4-triazol-3-yl)-1-(1-methylethoxy)-1-(5-methyl-2-pyrimidinyl)-2-propanesulfonamide]",EC50,[1],0.24 µM
"COCc1nnc(NS(=O)(=O)[C@@H](C)[C@H](C)c2ncc(C)cn2)n1-c1c(OC)cccc1OC [Example 61.0, (2S,3R)-N-(4-(2,6-dimethoxyphenyl)-5-(methoxymethyl)-4H-1.2.4-triazol-3-yl)-3-(5-methylpyrimidin-2-yl)butane-2-sulfonamide]",EC50,[2],0.0067 µM
COCc1nnc(NS(=O)(=O)[C@@H](C)[C@@H](OC(C)C)c2ncc(F)cn2)n1-c1c(OC)cccc1OC [Example 154.0],EC50,[2],0.0066 µM
"COc1cccc(OC)c1-n1c(C)nnc1NS(=O)(=O)[C@@H](C)[C@H](OC)c1ncc(C)cn1 [Example 26.0, (1R,2S)-N-(4-(2,6-dimethoxyphenyl)-5-methyl-4H-1,2,4-triazol-3-yl)-1-methoxy-1-(5-methylpyrimidin-2-yl)propane-2-sulfonamide]",EC50,[1],0.12 µM
